Results as given in US6518243B1, “Desleucyl glycopeptide antibiotics and methods of making same” (Trustees of Princeton University, priority 1999, dated 2003).

What was measured:
[1] = system: E. faecalis (CL 4877); assay: Zone of inhibition screen, 96 well agar array format; assay type: cell-based; parameters: scale not given here; settings: zone of inhibition relative to 1 mg/ml stock solution of p-chlorobiphenylvancomycin
Procedure, shortened: (§1)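 Antibacterial testing on a 96-well agar array; each compound screened separately.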

[2] = system: S. aureus (ATCC 29213); assay: as above; assay type: cell-based; parameters: scale not given here; settings: zone of inhibition relative to 1 mg/ml stock solution of p-chlorobiphenylvancomycin
Procedure, shortened: as §1

Compound | zone score, E. faecalis CL 4877 [1] | zone score, S. aureus ATCC 29213 [2]
C#CCC(NC(C)=O)C(=O)NC1C(=O)NC(CC(N)=O)C(=O)NC2C(=O)NC3C(=O)NC(C(=O)NC(C(=O)O)c4cc(O)cc(O)c4-c4cc3ccc4O)C(O)c3ccc(c(Cl)c3)Oc3cc2cc(c3OC2OC(CO)C(O)C(O)C2OC2CC(C)(NCc3ccc(-c4ccc(Cl)cc4)cc3)C(O)C(C)O2)Oc2ccc(cc2Cl)C1O (mixture of isomers) [Compound 177] | 2 | 2
CC1OC(OC2C(Oc3c4cc5cc3Oc3ccc(cc3Cl)C(O)C3NC(=O)C(NC(=O)C5NC(=O)C(CC(N)=O)NC(=O)C(NC(=O)C(N)CC(=O)OC(C)(C)C)C(O)c5ccc(c(Cl)c5)O4)c4ccc(O)c(c4)-c4c(O)cc(O)cc4C(C(=O)O)NC3=O)OC(CO)C(O)C2O)CC(C)(NCc2ccc(-c3ccc(Cl)cc3)cc2)C1O (stereo not drawn) [Compound 3] | 2 | 2
C[C@H]1O[C@H](O[C@H]2[C@H](Oc3c4cc5cc3Oc3ccc(cc3Cl)[C@@H](O)[C@@H](NC(=O)C(N)CC3CCCCC3)C(=O)N[C@@H](CC(N)=O)C(=O)N[C@H]5C(=O)N[C@H]3C(=O)N[C@H](C(=O)N[C@@H](C(=O)O)c5cc(O)cc(O)c5-c5cc3ccc5O)[C@H](O)c3ccc(c(Cl)c3)O4)O[C@H](CO)[C@@H](O)[C@@H]2O)C[C@@](C)(NCc2ccc(-c3ccc(Cl)cc3)cc2)[C@H]1O (stereo partly drawn) [Compound 4] | 2 | 2
CC(NCCCCC(N)C(=O)NC1C(=O)NC(CC(N)=O)C(=O)NC2C(=O)NC3C(=O)NC(C(=O)NC(C(=O)O)c4cc(O)cc(O)c4-c4cc3ccc4O)C(O)c3ccc(c(Cl)c3)Oc3cc2cc(c3OC2OC(CO)C(O)C(O)C2OC2CC(C)(NCc3ccc(-c4ccc(Cl)cc4)cc3)C(O)C(C)O2)Oc2ccc(cc2Cl)C1O)=C1C(=O)CC(C)(C)CC1=O (stereo not drawn) [Compound 39] | 2 | 2
CC(=O)NCSCC(N)C(=O)NC1C(=O)NC(CC(N)=O)C(=O)NC2C(=O)NC3C(=O)NC(C(=O)NC(C(=O)O)c4cc(O)cc(O)c4-c4cc3ccc4O)C(O)c3ccc(c(Cl)c3)Oc3cc2cc(c3OC2OC(CO)C(O)C(O)C2OC2CC(C)(NCc3ccc(-c4ccc(Cl)cc4)cc3)C(O)C(C)O2)Oc2ccc(cc2Cl)C1O (stereo not drawn) [Compound 49] | 2 | 2
CC1OC(OC2C(Oc3c4cc5cc3Oc3ccc(cc3Cl)C(O)C3NC(=O)C(NC(=O)C5NC(=O)C(CC(N)=O)NC(=O)C(NC(=O)C(N)CCCNC(=N)N)C(O)c5ccc(c(Cl)c5)O4)c4ccc(O)c(c4)-c4c(O)cc(O)cc4C(C(=O)O)NC3=O)OC(CO)C(O)C2O)CC(C)(NCc2ccc(-c3ccc(Cl)cc3)cc2)C1O (stereo not drawn) [Compound 90] | 2 | 2
CC1OC(OC2C(Oc3c4cc5cc3Oc3ccc(cc3Cl)C(O)C(NC(=O)C3(C(N)=O)CC3)C(=O)NC(CC(N)=O)C(=O)NC5C(=O)NC3C(=O)NC(C(=O)NC(C(=O)O)c5cc(O)cc(O)c5-c5cc3ccc5O)C(O)c3ccc(c(Cl)c3)O4)OC(CO)C(O)C2O)CC(C)(NCc2ccc(-c3ccc(Cl)cc3)cc2)C1O (stereo not drawn) [Compound 98] | 2 | 2
CC(=O)Nc1ccc(C(=O)NC2C(=O)NC(CC(N)=O)C(=O)NC3C(=O)NC4C(=O)NC(C(=O)NC(C(=O)O)c5cc(O)cc(O)c5-c5cc4ccc5O)C(O)c4ccc(c(Cl)c4)Oc4cc3cc(c4OC3OC(CO)C(O)C(O)C3OC3CC(C)(NCc4ccc(-c5ccc(Cl)cc5)cc4)C(O)C(C)O3)Oc3ccc(cc3Cl)C2O)cc1NC(C)=O (stereo not drawn) [Compound 104] | 2 | 2
CC(=O)NCCCC(=O)NC1C(=O)NC(CC(N)=O)C(=O)NC2C(=O)NC3C(=O)NC(C(=O)NC(C(=O)O)c4cc(O)cc(O)c4-c4cc3ccc4O)C(O)c3ccc(c(Cl)c3)Oc3cc2cc(c3OC2OC(CO)C(O)C(O)C2OC2CC(C)(NCc3ccc(-c4ccc(Cl)cc4)cc3)C(O)C(C)O2)Oc2ccc(cc2Cl)C1O (stereo not drawn) [Compound 107] | 2 | 2
